Experimental data taken from patent publication US5070210A, “Novel ketenimines as intermediates for insecticides” (ICI Americas Inc., priority 1990, dated 1991).

Key:
Format in all cases: in vivo
[1] = tested on: Tobacco Budworm [Heliothis virescens (Fabricius)] eggs; test: Tobacco budworm egg test; conditions: 2-day old eggs, percent in solution
How it was run: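 Paper towel patches bearing 2-day old eggs were dipped in acetone solutions of compound, then set in petri dishes over larval rearing medium at 78° F. Mortality was scored once all control eggs had hatched and larvae were feeding. LC50, from dosage-mortality curves, is given as percent compound in solution.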

[2] = tested on: Housefly [Musca domestica]; test: Housefly insecticidal test; conditions: μg per 25 female flies; mortality after 48 hours
How it was run: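 Acetone solutions (with 0.01% peanut oil) dried onto dish bottoms, then 25 female flies, 1-2 days old, caged over the residue with sugar water. Mortality scored at 48 hours; LC50 from dosage-mortality curves, in μg per 25 female flies, top level 100 μg.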

[3] = tested on: Cabbage Looper [Trichoplusia ni (Hubner)]; test: Cabbage looper insecticidal test; conditions: second-instar larvae, percent in solution; 3-5 days
How it was run: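 Compounds in 50-50 acetone-water were applied by dipping squash cotyledons (about 1×1.5 in) for 2-3 s; dried leaves went into petri dishes on moist filter paper with 5 second-instar larvae under high humidity. Mortality was scored after 3-5 days; LC50 from dosage-mortality curves, as percent compound in solution.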

Compound	LC50, TBW, E (TBW-E) [1] [%]	LC50, HF [2] [µg]	LC50, CL [3] [%]
CC(C)C(=Nc1c(F)c(F)c(F)c(F)c1F)OCc1cccc(Oc2ccc(F)cc2F)c1 [Compound 232]	> 0.1	> 100	0.004
CCC(C)C(=Nc1ccc(Cl)c(Cl)c1)OCc1cccc(Oc2ccccc2)c1 (stereo not drawn) [Compound 39]	> 0.1	> 100	0.0023
FC(F)(F)c1cccc(N=C(OCc2cccc(Oc3ccccc3)c2)C2CC2)c1 [Compound 86]	> 0.1	65	0.013
CC(C)C(=Nc1ccc(Br)c(Br)c1)OCc1cccc(Oc2ccc(F)cc2)c1 [Compound 251]	0.06	25	0.0005
CC(C)C(=Nc1cccc(F)c1)OCc1cccc(Oc2ccc(F)cc2)c1 [Compound 200]	0.1	7.5	0.00075
CC(C)C(=Nc1cccc(C#N)c1)OCc1cccc(Oc2ccccc2)c1 [Compound 126]	> 0.1	> 100	0.08
CCC(=Nc1ccc(CC)cc1)OCc1cccc(Oc2ccccc2)c1 [Compound 157]	> 0.1	25	0.009
CC(C)C(=Nc1ccc(Cl)c(Cl)c1)OCc1cccc(Oc2ccc(F)c(F)c2)c1 [Compound 218]	0.025	25	0.0003
Cc1cc(N=C(OCc2cccc(Oc3ccc(F)cc3)c2)C(C)C)ccc1F [Compound 236]	0.06	7	0.0018
CC(C)C(=Nc1ccc(Cl)c(Cl)c1)OCc1cccc(Oc2ccc(F)cc2F)c1 [Compound 213]	> 0.1	> 100	0.00075
CCC(C)C(=Nc1ccc(Cl)c(Cl)c1)OCc1cccc(Oc2ccc(F)cc2)c1 (stereo not drawn) [Compound 211]	> 0.1	61	0.0017
Cc1ccc(Cl)c(N=C(OCc2cccc(Oc3ccccc3)c2)C(C)C)c1 [Compound 93]	> 0.1	64	0.005
CC(C)C(=Nc1cccc(Br)c1)OCc1cccc(Oc2ccc(F)cc2)c1 [Compound 229]	> 0.1	20	0.0005
CC(C)(C)C(=Nc1ccc(Br)c(Cl)c1)OCc1cccc(Oc2ccccc2)c1 [Compound 106]	> 0.1	> 100	0.014
Cc1ccc(Oc2cccc(COC(=Nc3cccc(C(F)(F)F)c3)C(C)C)n2)cc1 [Compound 495]	0.1	> 100	0.012
Clc1cccc(N=C(OCc2cccc(Oc3ccccc3)c2)C2CC2)c1 [Compound 24]	0.1	25	0.005
COc1cc(N=C(OCc2cccc(Oc3ccccc3)c2)C(C)C)cc(C(F)(F)F)c1 [Compound 76]	0.05	20	0.002
CC(C)C(=Nc1ccc2c(c1)OCO2)OCc1cccc(Oc2ccccc2F)c1 [Compound 183]	0.075	10	0.00075
CSc1ccc(N=C(OCc2cccc(Oc3ccccc3)c2)C(Cl)Cl)cc1 [Compound 141]	> 0.1	35	< 0.1
CCCC(=Nc1ccc(OC)cc1)OCc1cccc(Oc2ccccc2)c1 [Compound 184]	> 0.1	61	0.024
CC(C)C(=Nc1ccc(C2CCCCC2)cc1)OCc1cccc(Oc2ccc(F)cc2)c1 [Compound 280]	> 0.1	> 100	0.024

Compound	LC50, TBW, E (TBW-E) [1] [%]	LC50, HF [2] [µg]	LC50, CL [3] [%]
CC(C)C(=Nc1ccc(Cl)cc1)OCc1coc(Cc2ccccc2)c1 [Compound 484]	> 0.1	16	0.003
Cc1ccc(Oc2cccc(COC(=Nc3ccc(F)c(Cl)c3)C(C)C)n2)cc1 [Compound 494]	> 0.1	34	0.003
CC(C)C(=Nc1c(Br)cc(F)cc1Br)OCc1cccc(Oc2ccccc2)c1 [Compound 130]	> 0.1	> 100	0.005
CC(C)C(=Nc1ccc2c(c1)OC(C)(C)O2)OCc1cccc(Oc2ccccc2)c1 [Compound 182]	0.04	28	0.0006
COc1ccc(Oc2cccc(COC(=Nc3ccc(Cl)c(Cl)c3)C(C)C)c2)cc1 [Compound 223]	> 0.1	43	0.008
CC(C)C(=Nc1ccc(F)cc1)OCc1cccc(Oc2cccc(Cl)c2)c1 [Compound 205]	> 0.1	50	0.004
COc1cc(N=C(OCc2cccc(Oc3ccccc3)c2)C(C)C)cc(OC)c1OC [Compound 248]	> 0.1	40	0.02
COc1ccc(N=C(OCc2cccc(Oc3ccccc3)c2)C(C)C)cc1OC [Compound 169]	> 0.1	10	0.009
CC(C)C(=Nc1ccc2c(c1)OC(C)(C)O2)OCc1cccc(Oc2ccc(Cl)cc2)c1 [Compound 241]	> 0.1	> 100	0.0004
COc1cc(N=C(OCc2cccc(Oc3ccccc3)c2)C(C)C)c(OC)cc1Cl [Compound 99]	> 0.1	> 100	0.016
CC(C)C(=Nc1ccc(F)c(Cl)c1)OCc1cccc(Oc2cc(F)cc(F)c2)c1 [Compound 215]	> 0.1	75	0.00075
COc1ccc(Oc2cccc(COC(=Nc3ccc(F)c(Cl)c3)C(C)C)c2)cc1 [Compound 221]	> 0.1	62	0.0027
CC(C)C(=Nc1ccc2c(c1)OCO2)OCc1cccc(Oc2ccc(C(F)(F)F)cc2)c1 [Compound 246]	> 0.1	60	0.004
CC(C)C(=Nc1cc(C(F)(F)F)cc(C(F)(F)F)c1)OCc1cccc(Oc2ccccc2)c1 [Compound 78]	> 0.1	> 100	0.0025
CC(C)C(=Nc1cccc(C(F)(F)F)c1)OCc1ccc(OCc2ccc(F)cc2)cc1 [Compound 488]	> 0.1	> 100	0.025
COc1ccc(Cl)cc1N=C(OCc1cccc(Oc2ccccc2)c1)C(C)C [Compound 264]	> 0.1	> 100	0.03
CC(C)C(=Nc1ccc(F)c(Cl)c1)OCc1ccc(F)c(Br)c1 [Compound 473]	> 0.1	> 100	0.025
CC(C)C(=Nc1ccc(F)cc1)OCc1cccc(Oc2ccc(F)c(F)c2)c1 [Compound 265]	0.07	10	0.00025
CC(C)C(=Nc1cc(C(F)(F)F)ccc1F)OCc1cccc(Oc2ccccc2)c1 [Compound 84]	0.1	93	0.006
CC(C)C(=Nc1ccc(F)c(Cl)c1)OCc1coc(Cc2ccccc2)c1 [Compound 474]	> 0.1	8	0.0012
